# Patent EP0201732A2, “Beta-2-mimetics of the 4-aminophenylethanolamine type for the prevention of peptic ulcers” (BOEHRINGER INGELHEIM VETMEDICA GMBH, priority 1985, dated 1986)
# Where a name gives a salt, the structure may show the parent alone.
# Columns and labels:
# [1] = system: peptische Labmagenulcera; conditions: dose not given
# [2] = system: Magensäuresekretion; conditions: rat; doses higher by a factor of 100 than needed for the broncholytic effect; Arzneimittelforschung 26, 1404-1420 (1976); cited from earlier work
# [3] = system: peptische Labmagenulcera; assay: Prevention of peptic abomasal ulcers in fattening calves, compound given as feed additive; abomasa dissected after slaughter; assay type: in vivo, Kälber; conditions: 2 mcg/kg body weight per day in 2 doses mixed into feed; 32 calves, ca. 70 days old and ca. 100 kg at start; treatment ended 14 days before slaughter; control group showed ulcers and haemorrhagic erosions
# From the text: (§1) Beispielsweise wurde die Verbindung 1-(4-Amino-3,5,-dichforphenyl)-2-tertbutyfamina-äthanol- hydrochlorid in einer Tagesdosis von 2 mcg/kg Körpergewicht, verteilt auf 2 Dosen, welche dem Futter beigemischt war, 32 bei Beginn der Behandlung ca. 70 Tage alten und ca. 100 kg schweren Kälbern im Vergleich zu einer gleichgroßen Kontrollgruppe fortgesetzt verabreicht.
# (§2) 14 Tage vor dem Schlachttermin wurde die Behandlung beendet.
# Nach der Schlachtung zeigten sich bei der Sektion der Labmägen der Kontrollgruppe Läsionen der Labmagenschleimhaut in folgenden verschiedenen Stadien: • 3 Tiere hatten je ein Ulcus bis zu einem Durchmesser von 20 mm • 4 Tiere hatten mehrere Ulcera mit einem Durchmesser von 2 bis 15 mm
# Weitere Tiere wiesen hämorrhagische Erosionen auf den Magenschleimhautfalten auf.
# [4] = Feed consumption and final weight of the treated calves against the control group; assay type: in vivo, Kälber
# From the text: as §1, §2
# Außerdem wies bei einem Futterverbrauch der Versuchsgruppe von 344,3 kg pro Tier bzw. von 343,7 kg pro Tier der Kontrollgruppe die erstere eine um ca. 10 kg höhere Endgewicht pro Tier auf. Bei einem annähernd gleichen Futterverbrauch pro Tier bedeutet dies eine Steigerung der Fleischproduktion von ca. 320 kg in der Versuchsgruppe.
# [5] = Acute oral toxicity (LD50); conditions: mouse, in vivo, Maus, p.o.
# From the text: (§3) Die verabreichte Substanz ist gut verträglich.
# [6] = Tolerability in the treated calves: side effects, haematology and serum enzymes (random samples); assay type: in vivo, Kälber
# From the text: as §1, §3
smiles,measurement,setting,value
CN/C(=N/CCSCc1nc[nH]c1C)NC#N [Cimetidine],Behandlungsversuch,[1],erfolglos
"CC(C)(C)NCC(O)c1cc(Cl)c(N)c(Cl)c1 (centres unmarked) [1-(4-Amino-3,5-dichlor-phenyl)-2-tert.butylamino-äthanol]",Hemmwirkung auf die Magensäuresekretion,[2],eine Hemmwirkung auf die Magensäuresekretion
"CC(C)(C)NCC(O)c1cc(Cl)c(N)c(Cl)c1 (centres unmarked) [1-(4-Amino-3,5-dichlor-phenyl)-2-tert.butylamino-äthanol-hydrochlorid]",Läsionen der Labmagenschleimhaut,[3],bei keinem Tier der Versuchsgruppe irgendwelche Läsionen der Labmagenschleimhaut feststellbar
same,höhere Endgewicht pro Tier,"[4]; test group versus control group, 2 mcg/kg per day in feed",ca. 10 kg
same,Steigerung der Fleischproduktion,[4]; whole test group (32 calves) at nearly equal feed consumption per animal,ca. 320 kg
same,LD50,[5],176 mg/kg
same,Nebenwirkungen,"[6]; calves, 2 mcg/kg per day in feed",keinerlei Nebenwrikungen
same,"hämatologische Untersuchung und Enzyme SGOT, CPK, LDH und GLDH","[6]; random samples, test group versus control group",keine signifikanten Unterschiede
